Data reported in PubChem BioAssay AID2305 (GlaxoSmithKline (GSK), 2010).
pIC50: −log10 of the molar value. Where “and” joins values, the source holds several entries; their conditions need not be identical. Equal values may be shown once.

What follows are compounds tested on P. falciparum 3D7 growth, pLDH absorbance (assay: P. falciparum 3D7 growth inhibition, dose response, strain 3D7 (AID 2305)).

| SMILES | pIC50 |
| --- | --- |
| O=C(/C=C/c1ccc(Cl)c(Cl)c1)NCCCCCN1CCC(NC(=O)Nc2cccc(C(F)(F)F)c2)CC1 | 6.15 |
| CCCN(CCCCNC(=O)c1ccc(-c2cccnc2)cc1)C1CCc2c(O)cccc2C1 (stereo unspecified) | 5.95 |
| N#Cc1ccc(N2CCN(Cc3ccc(-c4ccc(-c5nc6ccc(F)cc6[nH]5)s4)cc3)CC2)nc1 | 6.07 |
| O=C(Nc1ccccc1Br)c1cn(-c2ccccc2)nc1-c1cccc([N+](=O)[O-])c1 | 5.88 |
| Cc1cc(NC(=O)Nc2ccc3nc(C)oc3c2)c2cc(Cl)ccc2n1 | 5.95 |
| NC(N)=NC(=O)Nc1cc(F)c(Cl)c(Br)c1 | 6.00 |
| Nc1cccc(CNCc2cccc(-c3cccc(-c4nc5ccccc5[nH]4)c3)c2)c1 | 6.21 |
| CNc1c2c(nc3ccc(NC(=O)CCCCCCc4ccccc4)cc13)CCCC2 | 6.04 |
| Cc1cc(N)c2cc(NC(=O)/C=C/c3ccccc3)ccc2n1 | 6.12 |
| OC1CCC(Nc2ccc3ncc(-c4ccc5ccccc5c4)n3n2)CC1 (stereo unspecified) | 6.01 |
| COc1ccc(-n2nc(C)c3c2NC(=O)CC3c2ccccc2OCc2ccc(F)cc2)cc1 (stereo unspecified) | 6.07 |
| COc1ccc(C2CC(=O)C3=C(C2)NC(C)=C(C(=O)OC(C)C)C3c2ccccc2F)cc1OC (stereo unspecified) | 7.22 |
| CC(C)CNCc1cccc(-c2ccc(CNc3ccc4ncccc4c3)cc2)c1 | 5.97 |
| O=c1cc(NCCCNCc2ccc(Cl)c(Cl)c2)[nH]c2cc(Cl)ccc12 | 6.04 |
| COc1ccccc1N=C1SC(=Cc2cn(CC(=O)N3CCCc4ccccc43)c3ccccc23)C(=O)N1C1CCCCC1 | 7.52 |
| CN(C(=O)c1ccc(Br)cc1)c1ccccc1[N+](=O)[O-] | 6.03 |
| O=C(O)CCc1ccc(-c2c[nH]c3ncc(-c4ccc5ncccc5c4)cc23)cc1 | 6.52 |
| O=C(/C=C/c1ccc(Cl)c(Cl)c1)NCCCCCN1CCC(NC(=O)Nc2ccc(C(F)(F)F)cc2)C1 (stereo unspecified) | 6.29 |
| CCNc1cc(C)nc(Nc2ccc(NC(=O)Cc3ccc(OC)cc3)cc2)n1 | 5.86 |
| CCn1ccc2c(N3CCCC3=O)cc(C(=O)N[C@@H](Cc3ccccc3)[C@H](O)CNC(C)(C)CCCC(C)C)cc21 | 6.46 |
| O=C(/C=C/c1ccc(C(F)(F)F)cc1)NC1CCC(CN2CCC(c3c[nH]c4ccccc34)CC2)CC1 (stereo unspecified) | 6.02 and 6.43 |
| CCOc1ccc2c(c1)N(C(=O)C=Cc1ccccc1)C(C)(C)c1ssc(=S)c1-2 | 5.94 |
| CCCC[C@H](NC(=O)O[C@H](COc1ccc(OCc2ccccc2)cc1)C(C)(C)C)C(=O)C(=O)Nc1ccn[nH]1 | 6.00 |
| CCOc1cc(C)ccc1C1CCN(CCCCNC(=O)c2ccc(-c3ccc(C(F)(F)F)cn3)cc2)CC1 | 6.10 |

| SMILES | pIC50 |
| --- | --- |
| CC(C)Cn1c(Sc2ccc(C#N)c([N+](=O)[O-])c2)nnc1-c1ccccc1Cl | 6.05 |
| O=C(N[C@H]1CCN(Cc2ccc(OCCCN3CCCCC3)cc2)C1)c1cc(Cl)cc(Cl)c1 | 6.21 |
| CC(C)C[C@H](NC(=O)c1ccc(OCCN2CCOCC2)cc1)C(=O)N[C@H](/C=N/N(C)C(=O)c1ccccc1)CCc1ccccc1 | 6.57 |
| c1ccc(CN2CCC(NCc3ccccc3-c3cccc(CNCc4ccc5c(c4)OCO5)c3)CC2)cc1 | 6.24 |
| O=C(CCN(Cc1ccco1)c1nc(-c2ccc(F)cc2)nc2ccccc12)NC1CC1 | 5.80 |
| O=C(Nc1ccc(Cl)cc1)Nc1cccc(-c2ccc(-c3nc4ccc(F)cc4[nH]3)cc2)c1 | 7.30 |
| CC(=O)c1ccc(NC(=O)Nc2ccc3nccc(N4CCN(C)CC4)c3c2)cc1 | 6.37 |
| CC1CCc2c(C(=O)N3CCc4ccccc4C3)csc2C1 (stereo unspecified) | 6.11 |
| Cc1nc(-c2cccc(Nc3nccc(NCC(O)c4ccccc4C)n3)c2)cs1 (stereo unspecified) | 6.05 |
| COc1cc2nc(N3CCC(CNC(=O)c4ccc(-c5ccc(C(=O)N(C)C)cc5)c(OCCO)c4)CC3)nc(N)c2cc1OC | 6.14 |
| CC1CN=C(c2cccc(NC(=O)Nc3cccc(C4=NCC(C)N4)c3)c2)N1 (stereo unspecified) | 6.44 |
| Cc1cc(N(C)C2CCN(C)CC2)nc(Nc2ccc(Cl)cc2)n1 | 6.54 |
| Cc1[nH]c(C)c(-c2ccc(-c3ccc(OC(F)(F)F)cc3)cc2)c(=O)c1Br | 7.40 |
| Cc1cc(NN=Cc2cccc([N+](=O)[O-])c2)c2cc(F)ccc2n1 | 6.23 |
| COc1ccc2nccc(NN=Cc3ccc(Cl)cc3)c2c1 | 6.68 |
| COc1ccc(C(=C(C)CC(C)C(=O)O)c2ccccc2)cc1 (stereo unspecified) | 6.08 |
| Nc1nccc2ccc(-c3ccc4nccn4c3)cc12 | 7.00 |
| NC(=NCCCc1ccccc1)c1cccc(C(N)=NCCCc2ccccc2)n1 | 5.86 |
| O=S(=O)(NCCN1CCCC1)c1ccc(-c2ccc(CNCc3ccc(F)cc3)cc2)cc1F | 5.89 |
| O=C(Nc1ccc(C(F)(F)F)cc1)c1cccc(S(=O)(=O)NC2CCN(CC3CCCCC3)C2)c1 (stereo unspecified) | 6.16 |
| O=C1CC(C(=O)Nc2cccc(-c3cccc(-c4nc5ccccc5[nH]4)c3)c2)c2ccccc2N1 (stereo unspecified) | 6.01 |
| N#CCOc1c(C2CCN(CCCCNC(=O)c3ccc(-c4ccc(C(F)(F)F)cc4)cc3)CC2)ccc2c1CCCC2 | 6.12 |
| CN(C1CCC(NC(=O)/C=C/c2ccccc2)CC1)C1CC2(CCN(C(=O)OC(C)(C)C)CC2)c2ccccc21 (stereo unspecified) | 6.09 |
| CCCCCC(=O)NCC(NCCCNc1cc(=O)c2ccccc2[nH]1)c1cc(Br)cc(Br)c1 (stereo unspecified) | 6.19 |

| SMILES | pIC50 |
| --- | --- |
| COCCCNc1sc(S(=O)(=O)c2ccccc2)nc1S(=O)(=O)c1ccc(Cl)cc1 | 6.06 |
| O=C(/C=C/c1ccc(Cl)c(Cl)c1)NCCCCCN1CCC(C(=O)Nc2ccc3c(c2)OCO3)CC1 | 6.08 |
| Cc1cc(CNCCCCCCCNCc2cccc([N+](=O)[O-])c2)ccc1O | 6.19 |
| Cc1ccc(-c2cc(C(=O)Nc3ccc(S(=O)(=O)N4CCCCC4C)cc3)[nH]n2)c(O)c1 (stereo unspecified) | 5.97 |
| CN(C)c1ccc(C=Cc2nc(=O)c3ccccc3o2)cc1 | 7.40 |
| CC=Cc1cc(Cc2cnc(N)nc2N)cc(CCC)c1OC | 6.11 |
| CCN(CC)CCN(Cc1ccc(-c2ccc(C(F)(F)F)cc2)cc1)C(=O)Cn1c(CCc2ccc(F)c(F)c2F)nc(=O)c2ccc(F)cc21 | 6.13 |
| CC(C)(CN)c1cc(-c2ccc(Cl)c(O)c2)c(-c2ccncc2)o1 | 5.94 |
| Cc1ccc(NC(=O)c2nc(N3CCN(c4ccncc4)CC3)ccc2Cl)cc1F | 6.09 |
| COc1cccc(-c2cc(C(=O)Nc3cc(Oc4ccc(O)cc4)cc([N+](=O)[O-])c3)on2)c1 | 5.98 |
| O=c1[nH]ccc2nc(N[C@@H]3CCNC3)nc(Nc3ccc4c(c3)S(=O)(=O)CC4)c12 | 6.42 |
| O=C(/C=C/c1ccc(Cl)c(Cl)c1)N1CCC(CN2CCC(Cc3cc4ccccc4[nH]3)CC2)CC1 | 6.20 |
| O=C(NCCCCN1CCC(c2cccc3ccccc23)CC1)c1ccc(NC(=O)c2ccc(Cl)cc2)cc1 | 6.11 |
| CCN(CC)CCCN(Cc1ccc(-c2ccc(C(F)(F)F)cc2)cc1)C(=O)Cn1c(SCc2cccc(F)c2F)cc(=O)c2ccccc21 | 5.88 |
| COc1ccc(NC(=O)c2cc(NC(=O)C3(N)CC3)c(=O)n(Cc3ccc(C(N)=O)cc3)c2)cc1 | 6.10 |
| CC(C)(C)c1cc(C(=O)N2CCN(c3ncccc3C(F)(F)F)CC2)n(Cc2ccccc2)n1 | 6.60 |
| CCOC(=O)CN1Cc2cc(NCc3ccc4ccc5nc(C)[nH]c(=O)c5c4c3)ccc2C1=O | 6.15 |
| COC(=O)c1ccc(NC(=O)Nc2cccc(CCNCc3ccccc3)c2)cc1 | 6.06 |
| Cc1cc(C2NC(=O)c3ccccc3N2)c(C)n1-c1ccc2c(c1)OCO2 (stereo unspecified) | 6.14 |
| O=C(/C=C/c1ccc(Cl)cc1)NCCCCCN1CCCN(C(=O)Nc2ccc(Cl)c(C(F)(F)F)c2)CC1 | 6.04 |
| COc1ccc(-c2cnn3ccc(Nc4cc(OC)c(OC)c(OC)c4)nc23)cc1OC | 6.19 |
| CC(=NNC(=S)NCc1ccco1)c1ccccn1 | 6.60 |
| Cc1cccc(CNc2nc(C)cc(NCCC(=O)NCCOc3ccccc3)n2)c1 | 6.06 |
| COc1ccc2nccc([C@@H](O)CN3CCC(NCc4nc5cc(F)c(F)cc5[nH]4)CC3)c2c1 | 6.28 |

| SMILES | pIC50 |
| --- | --- |
| CCCCNCc1ccc(-c2nc(CN(CCCn3ccnc3)C(=O)C3COc4ccccc4O3)cs2)cc1 (stereo unspecified) | 6.05 |
| CN1CCN(CCCN(Cc2cccc(-c3ccc(CNC4CCCC4)cc3)c2)C(=O)CCC2CCCC2)CC1 | 6.12 |
| CC1CN(Cc2ccc(C#N)cc2)CCN1c1ccc(NC(=O)c2cccs2)cc1 (stereo unspecified) | 6.09 |
| COc1cccc2cc(C(=O)N[C@@H](CC(C)C)C(=O)N[C@H](/C=N/N3C(=O)CN(Cc4ccccc4)C3=O)CCc3ccccc3)oc12 | 6.21 |
| O=C(/C=C/c1ccc(Cl)c(Cl)c1)NCCCCCN1CCCC(C(=O)Nc2ccc(Cl)c(Cl)c2)C1 (stereo unspecified) | 6.11 |
| COC(=O)c1ccc(CN2CCC(N(Cc3cccc(Oc4ccccc4)c3)S(=O)(=O)c3ccc(NC(C)=O)cc3)CC2)cc1 | 5.98 |
| CCCCNCc1ccc(-c2nc(CN(Cc3ccc(Cl)c(Cl)c3)S(=O)(=O)c3ccc(NC(C)=O)cc3)cs2)cc1 | 5.99 |
| N#Cc1cccc(NC(=O)Nc2cccc(-c3ccc(-c4nc5ccc(C(F)(F)F)cc5[nH]4)cc3)c2)c1 | 6.60 |
| O=C(N[C@@H](CC1CCCCC1)C(=O)NCCN1CCOCC1)c1ccc(O)c(-c2ccc(Cl)c(Cl)c2)c1 | 6.74 |
| CCCc1ccc(NC(=O)c2cccc(CN3CCCN(Cc4cccc(C#N)c4)CC3)c2)cc1 | 6.01 |
| O=C(NCC1CC1)C1CCN(C(c2ccccc2)c2cc(F)cc(F)c2)CC1 (stereo unspecified) | 6.42 |
| O=C(NC1CC1)c1cnc(N2CCC(Oc3ccc(Cl)cc3)CC2)c(Cl)c1 | 5.96 |
| O=C(Nc1cccc(CN2CCCN(Cc3ccc(O)cc3)CC2)c1)c1ccc2ccccc2n1 | 6.03 |
| O=C(Nc1ccc2c(c1)OCCO2)c1cc(-c2cccnc2)nc2ccc(Cl)cc12 | 6.15 |
| O=C(/C=C/c1cccc(Cl)c1)Nc1ccc2nc(CN3CCCC3)ccc2c1 | 6.59 |
| O=c1ccccn1CCCC1CCCCN1 (stereo unspecified) | 6.09 |
| C=Cc1sc(CNCCCNc2cc(=O)c3ccccc3[nH]2)c(C)c1Br | 5.98 |
| COc1ccc(CC(C)NCC(O)c2cccc(C(F)(F)F)c2)cc1 (stereo unspecified) | 5.80 |
| CCn1c(Sc2ccc(C#N)c([N+](=O)[O-])c2)nnc1-c1ccc(Cl)cc1 | 6.26 |
| Clc1ccccc1OCc1ccccn1 | 6.00 |
| O=C(/C=C/c1ccc(Cl)c(Cl)c1)NCCCCCN1CCC(NC(=O)c2ccc(F)c(F)c2)CC1 | 6.10 |
| CNC(=O)c1ccccc1Nc1nc(Nc2cccc(CS(C)(=O)=O)c2)ncc1C | 6.28 |
| Cc1ccc(CN2CCN(c3cc4c(cc3Cl)CCN4C(=O)Cc3ccc(Cl)c(NC(=O)Nc4cccc(C#N)c4)c3)CC2)cc1 | 5.95 |
| Cc1cccc2[nH]c(-c3cccc(-c4ccc(NC(=O)Cc5ccon5)cc4)c3)nc12 | 5.96 |
